Each structure is given as a SMILES string.

The subject of the assay is Influenza A virus. Nature of the assay: Anti-viral activity against Influenza A virus amantadine-resistant strain (A/Puerto Rico/8/34) infected in MDCK cells assessed as inhibition of virus cytopathic effect measured after 48 hrs by crystal violet staining based assay. Format: functional, organism-based. The settings on record: A/Puerto Rico/8/34, MDCK.
For the compound `CC(=O)c1cc(C)c(O)c(Cc2[nH]c3ccccc3c2Cc2c(O)c(C)cc(C(C)=O)c2O)c1O`, the IC50 stood at 25.5 µM. Next, `CC(=O)c1cc(C)c(O)c(Cc2[nH]c3ccc(C)cc3c2Cc2c(O)c(C)cc(C(C)=O)c2O)c1O`: 20.6 µM. For `CC(=O)c1cc(C)c(O)c(Cc2[nH]c3ccc(-c4ccc5ncccc5c4)cc3c2Cc2c(O)c(C)cc(C(C)=O)c2O)c1O`, the half-maximal inhibitory concentration (IC50) stood at 18.5 µM. On to `COc1cccc(OC)c1-c1ccc2[nH]c(Cc3c(O)c(C)cc(C(C)=O)c3O)c(Cc3c(O)c(C)cc(C(C)=O)c3O)c2c1`, for which the concentration for half-maximal inhibition (IC50) was 21 µM. Turning to `COc1cccc(OC)c1-c1ccc2c(Cc3c(O)c(C)cc(C(C)=O)c3O)c(Cc3c(O)c(C)cc(C(C)=O)c3O)[nH]c2c1`, the IC50 was found to be 19.5 µM. With `C=CCn1c(Cc2c(O)c(C)cc(C(C)=O)c2O)c(Cc2c(O)c(C)cc(C(C)=O)c2O)c2ccccc21`, the IC50 was more than 30 µM. Take `CC(=O)c1cc(C)c(O)c(Cc2[nH]c3ccc(-c4cc(C(F)(F)F)cc(C(F)(F)F)c4)cc3c2Cc2c(O)c(C)cc(C(C)=O)c2O)c1O`: the IC50 is more than 30 µM. On to `CC(=O)c1cc(C)c(O)c(Cc2[nH]c3ccc(-c4cc(C)cc(C)c4)cc3c2Cc2c(O)c(C)cc(C(C)=O)c2O)c1O`, for which the half-maximal inhibitory concentration (IC50) came to 13.5 µM. For `CC(=O)c1cc(C)c(O)c(Cc2[nH]c3cc(-c4ccc5c(c4)CCO5)ccc3c2Cc2c(O)c(C)cc(C(C)=O)c2O)c1O`, the half-inhibitory concentration (IC50) is more than 30 µM. For `COc1ccc2cc(-c3ccc4c(Cc5c(O)c(C)cc(C(C)=O)c5O)c(Cc5c(O)c(C)cc(C(C)=O)c5O)[nH]c4c3)ccc2c1`, the half-inhibitory concentration (IC50) is 23.3 µM. With `CC(=O)c1cc(C)c(O)c(Cc2c(Cc3c(O)c(C)cc(C(C)=O)c3O)n(Cc3ccc(Cl)cc3)c3ccccc23)c1O`, the IC50 is more than 30 µM. As for `CC(=O)c1cc(C)c(O)c(Cc2[nH]c3cc(-c4cccc(F)c4)ccc3c2Cc2c(O)c(C)cc(C(C)=O)c2O)c1O`, the concentration for half-maximal inhibition (IC50) is more than 30 µM. Next, `CC(=O)c1cc(C)c(O)c(Cc2[nH]c3ccc(-c4ccc(C)cc4)cc3c2Cc2c(O)c(C)cc(C(C)=O)c2O)c1O`: 15.5 µM; `CC(=O)c1cc(C)c(O)c(Cc2[nH]c3cc(-c4cccc(O)c4)ccc3c2Cc2c(O)c(C)cc(C(C)=O)c2O)c1O`: more than 30 µM; `COc1cc(-c2ccc3c(Cc4c(O)c(C)cc(C(C)=O)c4O)c(Cc4c(O)c(C)cc(C(C)=O)c4O)[nH]c3c2)cc(OC)c1OC`: 20.1 µM. For `CC(=O)c1cc(C)c(O)c(Cc2[nH]c3ccc(-c4cccc(O)c4)cc3c2Cc2c(O)c(C)cc(C(C)=O)c2O)c1O`, the IC50 is more than 30 µM. The same measure for `CC(=O)c1cc(C)c(O)c(Cc2[nH]c3cc(-c4ccc(Cl)cc4)ccc3c2Cc2c(O)c(C)cc(C(C)=O)c2O)c1O`: more than 30 µM.

On to `CSc1ccc(-c2ccc3[nH]c(Cc4c(O)c(C)cc(C(C)=O)c4O)c(Cc4c(O)c(C)cc(C(C)=O)c4O)c3c2)cc1`, for which the IC50 stood at 17.5 µM. Next, `CC(=O)c1cc(C)c(O)c(Cc2[nH]c3ccc(-c4ccccc4F)cc3c2Cc2c(O)c(C)cc(C(C)=O)c2O)c1O`: more than 30 µM; `COc1ccc(-c2ccc3c(Cc4c(O)c(C)cc(C(C)=O)c4O)c(Cc4c(O)c(C)cc(C(C)=O)c4O)[nH]c3c2)cc1OC`: 19.7 µM; `CC(=O)c1cc(C)c(O)c(Cc2c(Cc3c(O)c(C)cc(C(C)=O)c3O)n(Cc3ccccc3)c3ccccc23)c1O`: more than 30 µM. For the compound `CC(=O)c1cc(C)c(O)c(Cc2[nH]c3cc(-c4cc(C(C)(C)C)cc(C(C)(C)C)c4)ccc3c2Cc2c(O)c(C)cc(C(C)=O)c2O)c1O`, the half-maximal inhibitory concentration (IC50) turned out to be 26.8 µM.

Regarding `CC(=O)c1cc(C)c(O)c(Cc2[nH]c3ccc(-c4c5ccccc5cc5ccccc45)cc3c2Cc2c(O)c(C)cc(C(C)=O)c2O)c1O`, the half-maximal inhibitory concentration (IC50) worked out at 6.7 µM.

For `CC(=O)c1cc(C)c(O)c(Cc2[nH]c3ccc(Br)cc3c2Cc2c(O)c(C)cc(C(C)=O)c2O)c1O`, the IC50 was found to be 25.2 µM. The same measure for `CC(=O)c1cc(C)c(O)c(Cc2[nH]c3ccc(-c4c5ccccc5c(-c5ccccc5)c5ccccc45)cc3c2Cc2c(O)c(C)cc(C(C)=O)c2O)c1O`: more than 30 µM; for `CC(=O)c1cc(C)c(O)c(Cc2[nH]c3cc(-c4ccccc4)ccc3c2Cc2c(O)c(C)cc(C(C)=O)c2O)c1O`: 23.4 µM. For `COc1ccc(Cn2c(Cc3c(O)c(C)cc(C(C)=O)c3O)c(Cc3c(O)c(C)cc(C(C)=O)c3O)c3ccccc32)cc1`, the IC50 was more than 30 µM. Regarding `CC(=O)c1cc(C)c(O)c(Cc2[nH]c3cc(-c4ccc5ccccc5c4)ccc3c2Cc2c(O)c(C)cc(C(C)=O)c2O)c1O`, the IC50 came out at 26 µM. Turning to `CC(=O)c1cc(C)c(O)c(Cc2[nH]c3ccc(-c4cc(C(C)(C)C)cc(C(C)(C)C)c4)cc3c2Cc2c(O)c(C)cc(C(C)=O)c2O)c1O`, the IC50 is more than 30 µM. Regarding `CC(=O)c1cc(C)c(O)c(Cc2[nH]c3cc(-c4ccc(C)cc4)ccc3c2Cc2c(O)c(C)cc(C(C)=O)c2O)c1O`, the IC50 was determined as 24.1 µM. In the case of `CC(=O)c1cc(C)c(O)c(Cc2[nH]c3cc(/C=C/c4ccccc4)ccc3c2Cc2c(O)c(C)cc(C(C)=O)c2O)c1O`, the IC50 is more than 30 µM. For the compound `CC(=O)c1cc(C)c(O)c(Cc2[nH]c3ccc(-c4ccc5ccccc5c4)cc3c2Cc2c(O)c(C)cc(C(C)=O)c2O)c1O`, the IC50 was found to be 20.7 µM. `CC(=O)c1cc(C)c(O)c(Cc2[nH]c3ccc(-c4ccc5c(c4)CCO5)cc3c2Cc2c(O)c(C)cc(C(C)=O)c2O)c1O`: the IC50 was more than 30 µM. Consider `CC(=O)c1cc(C)c(O)c(Cc2[nH]c3cc(-c4ccc5cccnc5c4)ccc3c2Cc2c(O)c(C)cc(C(C)=O)c2O)c1O`, for which the IC50 was more than 30 µM. With `CC(=O)c1cc(C)c(O)c(Cc2[nH]c3cc(-c4cc(C(F)(F)F)cc(C(F)(F)F)c4)ccc3c2Cc2c(O)c(C)cc(C(C)=O)c2O)c1O`, the concentration for half-maximal inhibition (IC50) is more than 30 µM. For `COc1ccc(-c2ccc3[nH]c(Cc4c(O)c(C)cc(C(C)=O)c4O)c(Cc4c(O)c(C)cc(C(C)=O)c4O)c3c2)cc1`, the IC50 came out at 16.3 µM. `CC(=O)c1cc(C)c(O)c(Cc2[nH]c3cc(-c4ccsc4)ccc3c2Cc2c(O)c(C)cc(C(C)=O)c2O)c1O`: the IC50 is more than 30 µM. With `COc1ccc2[nH]c(Cc3c(O)c(C)cc(C(C)=O)c3O)c(Cc3c(O)c(C)cc(C(C)=O)c3O)c2c1`, the IC50 came to 15.9 µM. For the compound `CC(=O)c1cc(C)c(O)c(Cc2[nH]c3ccc(-c4ccc(C(F)(F)F)cc4)cc3c2Cc2c(O)c(C)cc(C(C)=O)c2O)c1O`, the 50% inhibitory concentration (IC50) turned out to be 21.9 µM. As for `CC(=O)c1cc(C)c(O)c(Cc2c(Cc3c(O)c(C)cc(C(C)=O)c3O)n(N)c3ccccc23)c1O`, the half-inhibitory concentration (IC50) was more than 30 µM.

`CC(=O)c1cc(C)c(O)c(Cc2[nH]c3cc(-c4ccc(F)cc4)ccc3c2Cc2c(O)c(C)cc(C(C)=O)c2O)c1O`: the IC50 came out at 20.6 µM. Next, `CC(=O)c1cc(C)c(O)c(Cc2[nH]c3ccc(-c4csc5ccccc45)cc3c2Cc2c(O)c(C)cc(C(C)=O)c2O)c1O`: 23.4 µM. For `CC(=O)c1cc(C)c(O)c(Cc2[nH]c3cc(-c4c5ccccc5cc5ccccc45)ccc3c2Cc2c(O)c(C)cc(C(C)=O)c2O)c1O`, the IC50 is 8.3 µM. Turning to `CSc1ccc(-c2ccc3c(Cc4c(O)c(C)cc(C(C)=O)c4O)c(Cc4c(O)c(C)cc(C(C)=O)c4O)[nH]c3c2)cc1`, the IC50 is 9.1 µM. Next, `CC(=O)c1cc(C)c(O)c(Cc2[nH]c3cc(-c4ccc5c(c4)OCCO5)ccc3c2Cc2c(O)c(C)cc(C(C)=O)c2O)c1O`: 9.1 µM; `CC(=O)c1cc(C)c(O)c(Cc2[nH]c3cc(-c4ccccc4F)ccc3c2Cc2c(O)c(C)cc(C(C)=O)c2O)c1O`: more than 30 µM; `COc1ccc2cc(-c3ccc4[nH]c(Cc5c(O)c(C)cc(C(C)=O)c5O)c(Cc5c(O)c(C)cc(C(C)=O)c5O)c4c3)ccc2c1`: 21.2 µM. On to `COc1ccc(-c2ccc3[nH]c(Cc4c(O)c(C)cc(C(C)=O)c4O)c(Cc4c(O)c(C)cc(C(C)=O)c4O)c3c2)cc1OC`, for which the IC50 turned out to be 18.1 µM. As for `CC(=O)c1cc(C)c(O)c(Cc2[nH]c3ccc(Cl)cc3c2Cc2c(O)c(C)cc(C(C)=O)c2O)c1O`, the IC50 was more than 30 µM. With `CC(=O)c1cc(C)c(O)c(Cc2[nH]c3ccc(-c4ccc(Cl)cc4)cc3c2Cc2c(O)c(C)cc(C(C)=O)c2O)c1O`, the concentration for half-maximal inhibition (IC50) was 27 µM. As to `CC(=O)c1cc(C)c(O)c(Cc2[nH]c3cc(C)ccc3c2Cc2c(O)c(C)cc(C(C)=O)c2O)c1O`, the IC50 turned out to be 15.1 µM. As for `CC(=O)c1cc(C)c(O)c(Cc2[nH]c3cc(-c4csc5ccccc45)ccc3c2Cc2c(O)c(C)cc(C(C)=O)c2O)c1O`, the IC50 worked out at 20.9 µM. Take `CC(=O)c1cc(C)c(O)c(Cc2[nH]c3ccc(-c4cccc(F)c4)cc3c2Cc2c(O)c(C)cc(C(C)=O)c2O)c1O`: the IC50 was more than 30 µM. The same measure for `COc1ccc(-c2ccc3c(Cc4c(O)c(C)cc(C(C)=O)c4O)c(Cc4c(O)c(C)cc(C(C)=O)c4O)[nH]c3c2)cc1`: 8.7 µM; for `COc1cc(-c2ccc3[nH]c(Cc4c(O)c(C)cc(C(C)=O)c4O)c(Cc4c(O)c(C)cc(C(C)=O)c4O)c3c2)cc(OC)c1OC`: 8 µM; for `CC(=O)c1cc(C)c(O)c(Cc2[nH]c3ccc(F)cc3c2Cc2c(O)c(C)cc(C(C)=O)c2O)c1O`: more than 30 µM. With `CC(=O)c1cc(C)c(O)c(Cc2[nH]c3ccc(-c4ccc(F)cc4)cc3c2Cc2c(O)c(C)cc(C(C)=O)c2O)c1O`, the IC50 was more than 30 µM. With `CC(=O)c1cc(C)c(O)c(Cc2[nH]c3ccc(-c4ccc5c(c4)OCCO5)cc3c2Cc2c(O)c(C)cc(C(C)=O)c2O)c1O`, the IC50 was found to be 13 µM. For `CC(=O)c1cc(C)c(O)c(Cc2[nH]c3ccc(-c4ccsc4)cc3c2Cc2c(O)c(C)cc(C(C)=O)c2O)c1O`, the half-maximal inhibitory concentration (IC50) is more than 30 µM. The same measure for `CC(=O)c1cc(C)c(O)c(Cc2[nH]c3ccc(/C=C/c4ccccc4)cc3c2Cc2c(O)c(C)cc(C(C)=O)c2O)c1O`: more than 30 µM. For `CC(=O)c1cc(C)c(O)c(Cc2c(Cc3c(O)c(C)cc(C(C)=O)c3O)n(Cc3ccc(F)cc3)c3ccccc23)c1O`, the half-maximal inhibitory concentration (IC50) was more than 30 µM. For the compound `COc1ccc2c(Cc3c(O)c(C)cc(C(C)=O)c3O)c(Cc3c(O)c(C)cc(C(C)=O)c3O)[nH]c2c1`, the IC50 is 12.6 µM. The same measure for `CC(=O)c1cc(C)c(O)c(Cc2[nH]c3cc(-c4ccc(C(F)(F)F)cc4)ccc3c2Cc2c(O)c(C)cc(C(C)=O)c2O)c1O`: 25 µM; for `CC(=O)c1cc(C)c(O)c(Cc2[nH]c3ccc(-c4ccccc4)cc3c2Cc2c(O)c(C)cc(C(C)=O)c2O)c1O`: 26 µM; for `CC(=O)c1cc(C)c(O)c(Cc2[nH]c3cc(-c4cc(C)cc(C)c4)ccc3c2Cc2c(O)c(C)cc(C(C)=O)c2O)c1O`: 10.1 µM.

A word on the IC50: it is the point on the concentration scale where inhibition reaches its midpoint.
